These results are taken from US7998460B2, “Prevention of deficits in neurogenesis with anti-inflammatory agents” (The Board of Trustees of the Leland Stanford Junior …, priority 2003, dated 2011).

The assay has as its system adult hippocampus-derived neural precursor cells. Nature of the assay: In vitro neuronal differentiation (doublecortin) of hippocampal neural progenitor cells, 60 hours. The assay is classed as cell-based, rat. To be noted: 60 hours differentiation. From the text: Neuroinflammation could inhibit neurogenesis by a variety of mechanisms, including stimulation of the HPA axis with subsequent elevation of gluccocorticoids, alterations in the relationships between progenitor cells and cells of the neuro-vasculature, or direct effects of activated microglia on the precursor cells. To determine the extent to which microglial activation might directly affect neural stem/progenitor cells, microglia were stimulated in vitro with LPS. LPS is a potent activator of microglia and up-regulates the elaboration of pro-inflammatory cytokines, including IL-6 and TNF-α. LPS-stimulated or resting microglia were then co-cultured with normal neural stem cells from the hippocampus under conditions that typically stimulate the differentiation of 30 to 40% of the progenitor cells into immature Dcx-expressing neurons (normalized to a value of 1 in FIG. 2A, control). Neurogenesis in the presence of microglia was assessed as the increase or decrease in Dcx-expressing cells relative to control. Co-culture with activated, but not resting, microglia decreased in vitro neurogenesis to approximately half of control levels (FIG. 2A). LPS added directly to precursor cells had no effect on neurogenesis.
To determine if this effect was due to soluble factors or due to cell-cell contact, hippocampal precursor cells were differentiated in the presence of media pre-conditioned by resting or activated microglia.
Activated microglia produce the potent pro-inflammatory cytokines interleukin-1β (IL-1β), tumor necrosis factor-α (TNF-α), interferon-γ (INF-γ) and interleukin-6 (IL-6). Progenitor cells were allowed to differentiate in the presence of each cytokine and the relative expression of Dcx was scored after 60 hours. […] Addition of neutralizing anti-IL-6 antibody to CM from activated microglia was able to fully restore in vitro neurogenesis (FIG. 2A). This implicated IL-6 as a key inhibitor of neurogenesis in microglial CM. […] In contrast to neurogenesis, gliogenesis was unaffected by IL-6 exposure as indicated by the lack of change in the number of cells expressing the astrocyte (glial fibrillary acidic protein, GFAP) or early oligodendrocyte (NG2) markers relative to control cultures (FIG. 2E). The hippocampal precursors used in this study do express the IL-6 receptor, as confirmed by RT-PCR (FIG. 5).
Progenitor Cell Culture Adult hippocampus-derived neural precursor cells were isolated from adult rat hippocampus and cultured as previously described. Briefly, adult female Fisher-344 rats were deeply anesthetized with sodium pentobarbital and were dissected immediately. Hippocampi were enzymatically dissociated with papain (2.5 U/ml; Worthington, Freehold, N.J.)-dispase II (1 U/ml; Boehringer Mannheim, Indianapolis, Ind.)-DNase I (250 U/ml, Worthington) solution. Digested tissue was then washed with DMEM-10% fetal calf serum (FCS) and subsequently mixed with PBS-equilibrated Percoll solution to a final concentration of 35% Percoll. The Percoll solution was made by mixing nine parts of Percoll (Amersham Pharmacia Biotech, Uppsala, Sweden) with one part of 10× PBS. The cell suspension was then fractionated by centrifugation for 10 min at 1000×gravity. Floating myelin and tissue debris were discarded and the cell pellet re-suspended in 65% Percoll solution and fractionated again by centrifugation for 10 min at 1000×g. The floating neural precursors were collected, washed free of Percoll, and plated onto poly-L-ornithine/laminin-coated dishes in DMEM/F12 (1:1) containing 10% FCS medium for 24 hrs; then medium was replaced with serum-free growth medium consisting of DMEM/F12 (1:1) supplemented with N2 supplement (Life Technologies, Gaithersburg, Md.) and 20 ng/ml of human recombinant FGF-2 (Peprotech, Rocky Hill, N.J.). Cell lines were labeled via infection with replication deficient GFP-expressing recombinant retrovirus LZRS-CAMut4GFP. […]

In the case of lipopolysaccharide [LPS], the “effect on in vitro neurogenesis (Dcx-expressing cells relative to control)” value is reported as “no effect”.
